Several values for one entry are separate records, joined by “and”; a condition that tells them apart may be missing. Equal entries are not always repeated. Where two headings read alike, the source gives them in different places.
How the values were obtained:
[1] = system: Trypanosoma brucei rhodesiense (STIB900); assay: In vitro growth inhibition assay of T.b. rhodesiense (STIB900), Alamar blue; format: cell-based
Description: (§1) Each of the nucleoside analogues was examined for in vitro activity against four parasites, T.b. rhodesiene, T. cruzi, L. donovoni and P. falciparum, as well as for cytotoxicity toward the L6 rat myoblast cell line.
(§2) All IC50 values are expressed as micromolar. Cytotoxicity (L6 rat myoblast cells); average of duplicate determinations. Trypanosoma brucei rhodesiense (STIB900); average of duplicate determinations. Selectivity index for T.b. rhodesiense (SIr); expressed as the ratio [IC50 (L6/IC50 (T.b. rhodesiense)]. Plasmodium falciparum ([…], resistant to chloroquine); average of duplicate determinations. Selectivity index for P. falciparum (SIp), expressed as the ratio [IC50 (L6/IC50 (P. falciparum)]. Leishmania donovani (MHOM/SD/62/IS-CL2D) axenic amastigotes; average of duplicate determinations. Selectivity index for L. donovani (SIL), expressed as the ratio [IC50 (L6/IC50 (L. donovani)]. Trypanosoma cruzi; average of duplicate determinations. Selectivity index for T. cruzi (SIC), expressed as the ratio [IC50(L6/IC50(T. cruzi)]. IA. Nucleoside analogs designed to be activated via Pathway I. IB. Nucleoside analogs designed to be activated via Pathway II. Phth=phthalimido.
Preparation of compounds for assay. Compounds were dissolved in 100% dimethyl sulfoxide (DMSO) and diluted in the culture medium prior to the in vitro assay. The DMSO concentration never exceeded 1% in the in vitro Alamar Blue assays at the highest drug concentration.
In vitro growth inhibition assay of T.B. rhodesiense (STIB900). IC50 values were determined using the Alamar blue assay and were carried out twice independently and in duplicate as described.^57

[2] = system: Plasmodium falciparum (KI), erythrocytic stages; assay: In vitro growth inhibition assay of P. falciparum, [3H]-hypoxanthine incorporation; format: cell-based
Description: as §1, §2
In vitro growth inhibition assay of P. falciparum (KI). The determination of IC50 values against erythrocytic stages of P. falciparum was carried out in duplicate using the [^3H]-hypoxanthine incorporation assay.^58,59

[3] = system: Leishmania donovani (MHOM/SD/62/IS-CL2D) axenic amastigotes; assay: In vitro growth inhibition assay of L. donovani axenic amastigotes, CellTiter; format: cell-based; conditions: for IC50: Leishmania donovani, axenic amastigotes, average of duplicate determinations, read-out: IC50 against L. donovani
Description: as §1, §2
In vitro growth inhibition assay of L. Donovani. Axenic amastigotes of L. Donovaniwere adapted from promastigotes and grown in the amastigote medium previously described.^60 The tetrazolium dye-based CellTiter reagent (Promega, Madison, Wis.) was used to assess parasite growth.^61

Trypanosoma cruzi = assay: In vitro activity against T. cruzi; format: cell-based; conditions: for IC50: Trypanosoma cruzi
Description: as §1, §2

[4] = In vitro cytotoxicity assay (L6 rat myoblast cells), Alamar blue; format: cell-based; conditions: read-out: Cytotoxicity IC50 toward L6 mammalian cell line
Description: as §1, §2
In vitro cytoxicity assay (L6 Rat Myoblast cells). IC50 values were determined using the Alamar blue assay^62 and were carried out twice independently.

Leishmania donovani [5] = conditions: literature ref. 29; cited from earlier work
Leishmania donovani [6] = conditions: literature ref. 29; cited from earlier work; remark: listed apart in the source
T.b gambiense = conditions: literature ref. 30; cited from earlier work
T.b. rhodesiense = conditions: literature ref. 30; cited from earlier work
L. donovani = conditions: literature ref. 55; cited from earlier work
[7] = average of duplicate determinations, read-out: IC50 against T. cruzi

Q: With `CC(=O)O[C@@H]1[C@H](OC(C)=O)[C@@H](CI)O[C@H]1n1cnc2c(N)nc(Cl)nc21` [Compound 47, 2′,3′-Di-O-acetyl-2-chloro-5′-deoxy-5′-iodoadenosine] as the compound, how does the melting point read?
A: 93 °C

Q: For `CSC[C@H]1O[C@@H](n2cnc3c(N(C)N=O)nc(F)nc32)[C@H](O)[C@@H]1O` [ACT-88, 5′-Deoxy-2-fluoro-N^6-methyl-5′-methylthio-N^6-nitrosoadenosine], which “Activity against Trypanosoma brucei (in words)” value [1] is on record?
A: absence

Q: What about the IC50 ([2]; Plasmodium falciparum, read-out: IC50 against Plasmodium falciparum) of the same compound?
A: 110 nM

Q: And the “Selectivity index for P. falciparum (SIp)” value ([2]; ratio IC50 (L6)/IC50 (P. falciparum))?
A: 983 and 1254

Q: What about the “Activity against L. donovani (in words)” value [3] of the same compound?
A: absence

Q: What about the “Activity against Trypanosoma cruzi (in words)” value (Trypanosoma cruzi) of the same compound?
A: absence

Q: With `Nc1nc(Cl)c2ccn(C3O[C@H](CO)[C@@H](O)[C@H]3O)c2n1` (stereo partly drawn) [ACT-91, 2-Amino-6-chloro-7-deaza-9-(D-ribofuranosyl)purine] as the compound, how does the IC50 ([1]; Trypanosoma brucei, STIB900, average of duplicate determinations, read-out: IC50 against T.b. rhodesiense) read?
A: 130 nM

Q: And the IC50 [3]?
A: 60 nM

Q: And the “Selectivity index for L. donovani (SIL)” value ([3]; ratio IC50 (L6)/IC50 (L. donovani))?
A: 2720 and 2717

Q: What about the IC50 (Trypanosoma cruzi; [7]) of the same compound?
A: 3400 nM

Q: What about the “Selectivity index for T. cruzi (SIC)” value (Trypanosoma cruzi; ratio IC50 (L6)/IC50 (T. cruzi)) of the same compound?
A: 48

Q: What about the melting point of the same compound?
A: 172 to 173 °C

Q: For `[N-]=[N+]=NC[C@H]1O[C@@H](n2cnc3c(N)nc(Cl)nc32)[C@H](O)[C@@H]1O` [Compound 49, 5′-Azido-2-chloro-5′-deoxyadenosine], which melting point is on record?
A: 222 to 223 °C

Q: For `CC(=O)O[C@@H]1[C@H](OC(C)=O)[C@@H](CN=[N+]=[N-])O[C@H]1n1cnc2c(N)nc(Cl)nc21` [Compound 41, 2′,3′-Di-O-Acetyl-5′-azido-2-chloro-5′-deoxyadenosine], which melting point is on record?
A: 75 to 77 °C

Q: What does the source list for `CSC[C@H]1O[C@@H](n2cnc3c(N)nc(F)nc32)[C@H](O)[C@@H]1O` [ACT-51, 5′-Deoxy-2-fluoro-5′-(methylthio)adenosine]?
A: Activity against Trypanosoma brucei (in words) [1]: strong activity; Activity against P. falciparum (in words) [2]: strong activity; Activity against L. donovani (in words) [3]: strong activity; IC50 (Trypanosoma cruzi; [7]): 2600 nM; IC50 [4]: 584 nM

Q: Which melting point does the source give for `CC(=O)O[C@@H]1[C@H](OC(C)=O)[C@@H](CN2C(=O)c3ccccc3C2=O)O[C@H]1n1cnc2c(N)nc(Cl)nc21` [Compound 45, 2′,3′-Di-O-acetyl-2-chloro-5′-deoxy-5′-phthalimidoadenosine] here?
A: 256 °C

Q: With `CC(=O)O[C@@H]1[C@H](OC(C)=O)[C@@H](CN2C(=O)c3ccccc3C2=O)O[C@H]1n1cnc2c(N)nc(F)nc21` [Compound 44, 2′,3′-Di-O-acetyl-5′-deoxy-2-fluoro-5′-phthalimidoadenosine] as the compound, how does the melting point read?
A: 237 to 239 °C

Q: Which IC50 (Trypanosoma cruzi; standard drug listed in the table, read-out: IC50 against T. cruzi (standard)) does the source give for `O=C(Cn1ccnc1[N+](=O)[O-])NCc1ccccc1` [benznidazole, reference compound] here?
A: 427 nM

Q: With `CCCCCCCCCCCCCCCCOP(=O)([O-])OCC[N+](C)(C)C` [miltefosine, reference compound] as the compound, how does the IC50 [3] read?
A: 122 nM

Q: Which melting point does the source give for `CC(=O)O[C@@H]1[C@H](OC(C)=O)[C@@H](CI)O[C@H]1n1cnc2c(N)nc(F)nc21` [Compound 46, 2′,3′-Di-O-acetyl-5′-deoxy-2-fluoro-5′-iodoadenosine] here?
A: 181 to 182 °C

Q: With `O=c1[nH]cnc2c([C@@H]3O[C@H](CO)[C@@H](O)[C@H]3O)n[nH]c12` [Formycin B] as the compound, how does the “Inhibition of Leishmania donovani in vitro” value (Leishmania donovani [5]) read?
A: inhibits

Q: What about the “Therapeutic activity in a hamster model” value (Leishmania donovani [6]) of the same compound?
A: therapeutically active

Q: And the “Activity against T.b gambiense” value (T.b gambiense)?
A: active

Q: What about the “Activity against T.b. rhodesiense” value (T.b. rhodesiense) of the same compound?
A: active

Q: With `O=C1N=CN=C2C([C@@H]3O[C@H](CO)[C@@H](O)[C@H]3O)=CN=C12` [9-deaza-inosine] as the compound, how does the “Activity against T.b gambiense” value (T.b gambiense) read?
A: active

Q: What about the “Activity against T.b. rhodesiense” value (T.b. rhodesiense) of the same compound?
A: active

Q: What about the “Activity against L. donovani in a squirrel monkey in vivo model” value (L. donovani) of the same compound?
A: activity

Q: With `CSC[C@H]1O[C@@H](n2cnc3c(N)nc(C#N)nc32)[C@H](O)[C@@H]1O` [Compound 71, 2-Cyano-5′-deoxy-5′-(methylthio)adenosine] as the compound, how does the melting point read?
A: 184 to 185 °C

Q: For `CNc1nc(C#N)nc2c1ncn2[C@@H]1O[C@H](C)[C@@H](O)[C@H]1O` [Compound 72, 2-Cyano-5′-deoxy-N^6-methyladenosine], which melting point is on record?
A: 193 to 194 °C

Q: For `CSC[C@H]1O[C@@H](n2cnc3c(N)nc(NN)nc32)[C@H](O)[C@@H]1O` [Compound 58, 5′-Deoxy-2-hydrazino-5′-(methylthio)adenosine], which melting point is on record?
A: 168 to 169 °C

Q: Which melting point does the source give for `CNc1nc(C#N)nc2c1ncn2[C@@H]1O[C@H](CSC)[C@@H](O)[C@H]1O` [Compound 73, 2-Cyano-5′-deoxy-N^6-methyl-5′-(methylthio)adenosine] here?
A: 193 to 194 °C

— patent publication US20180037601A1, “Nucleoside-Based Anti-Bacterial and Anti-Protozoan Drugs” (UTI Limited Partnership, priority 2015, published 2018)
